Results published in US8946261B2, “Substituted 1, 2, 3, 4-tetrahydroquinolin-7-yl carbamates as acetylcholinesterase inhibitors for treatment of Alzheimer's disease” (priority 2011, dated 2015).

What was measured:
[1] = target: T1, Acetylcholinesterase (AChE) (Mus musculus, UniProt P21836); experiment: Acetylcholinesterase (AChE) assay in brain (in vitro), Ellman method; type: biochemical, Swiss albino mice; details: for inhibition at 10 µM / inhibition at 100 µM: read-out: % Inhibition of AChE enzyme; for AChE inhibitory activity compared to rivastigmine: comparison with rivastigmine
T1 construct: A 10% (w/v) homogenate of brain was prepared; from tissue; host or cells: whole brain of adult Swiss albino mice; supernatant (100,000 g) of the 1% Triton X-100 treated homogenate
T1 sequence (P21836 32-614): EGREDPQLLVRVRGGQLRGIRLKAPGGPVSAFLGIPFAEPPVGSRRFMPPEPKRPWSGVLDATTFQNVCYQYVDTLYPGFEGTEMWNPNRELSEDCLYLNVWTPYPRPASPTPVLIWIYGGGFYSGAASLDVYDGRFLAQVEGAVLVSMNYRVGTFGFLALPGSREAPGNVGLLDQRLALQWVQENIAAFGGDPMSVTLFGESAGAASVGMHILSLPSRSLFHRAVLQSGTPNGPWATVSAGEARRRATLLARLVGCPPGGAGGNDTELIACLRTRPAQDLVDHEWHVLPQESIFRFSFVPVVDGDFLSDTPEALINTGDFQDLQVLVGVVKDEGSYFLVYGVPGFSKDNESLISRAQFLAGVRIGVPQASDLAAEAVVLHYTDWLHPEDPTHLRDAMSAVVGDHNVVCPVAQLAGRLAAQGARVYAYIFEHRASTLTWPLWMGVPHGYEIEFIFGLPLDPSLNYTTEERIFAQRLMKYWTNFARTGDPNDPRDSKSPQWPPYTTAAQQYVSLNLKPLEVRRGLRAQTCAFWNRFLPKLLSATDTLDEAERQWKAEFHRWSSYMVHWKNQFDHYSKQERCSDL
Description: Acetylcholinesterase (AChE) Assay in Brain (In Vitro)
The mice were perfused under mild ether anesthesia through heart with ice cooled normal saline (0.9% NaCl) to remove blood-born cholinesterase from the brain. After perfusion the whole brain was taken out. A 10% (w/v) homogenate of brain was prepared first by homogenizing in an Ultra-Turrax T25 homogenizer at a speed of 9500 rpm thrice giving intervals for few seconds in between the runs, with sodium phosphate buffer (0.03 M, pH-7)).
The brain homogenate in volume of 500 μl was mixed with 1% Triton X-100 (1% w/v in 0.03M sodium phosphate buffer, pH-7) and centrifuged at 100,000 g at 4° C. in a Beckman Ultracentrifuge (LE 80, USA), using a fixed angle rotor (80 ti) for 60 min. Supernatant was collected and stored at 4° C. for acetylcholinesterase estimation.
The assay for each sample was run in triplicate and each experiment was performed twice.
The specific activity of AChE is expressed in μM/min/mg of protein.
The test substance (dissolved in ethanol) was incubated with enzyme source in different concentrations ([…]) for 30 min at 37° C. prior to obtain kinetic profile of AChE activity. […] The AChE inhibitory activity was calculated on the basis of % decrease in AChE activity from control values i.e. AChE activity without incubation with any standard or test drug.
The results are expressed as mean±S.E.M. Statistical analysis of passive avoidance values were performed by t-test. The IC50 value was calculated by non linear regression method using GraphPad Prism software.

Swiss albino male mice = experiment: Gross behavioral study; details: for cholinergic symptoms: 25 mg/kg; for side effects: 50 mg/kg; for cholinergic symptoms / side effects: upto 24 hrs of drug administration

Row | SMILES | IC50 [1] | inhibition at 10 µM [1] | inhibition at 100 µM [1] | further results
1 | CCCCCCCNC(=O)Oc1ccc2c(c1)N(Cc1ccccc1)CCC2 [Compound 8h, 1-benzyl-1,2,3,4-tetrahydroquinolin-7-yl heptylcarbamate] | > 100 µM | 5.2% | 10.1% | 
2 | O=C(Nc1ccccc1F)Oc1ccc2c(c1)NCCC2 [Compound 9b, 1,2,3,4-tetrahydroquinolin-7-yl 2-fluorophenylcarbamate] | 76.3 ± 0.9 µM | 10.5% | 55.7% | 
3 | Cc1ccccc1NC(=O)Oc1ccc2c(c1)N(Cc1ccccc1)CCC2 [Compound 8a, 1-benzyl-1,2,3,4-tetrahydroquinolin-7-yl 2-methylphenylcarbamate] | 13 ± 0.66 µM | 44.1% | 90.4% | 
4 | Cc1ccc(NC(=O)Oc2ccc3c(c2)NCCC3)cc1 [Compound 9a, 1,2,3,4-tetrahydroquinolin-7-yl 4-methylphenylcarbamate] | > 100 µM | 0.01% | 1.45% | 
5 | Cc1ccc(NC(=O)Oc2ccc3c(c2)N(Cc2ccccc2)CCC3)cc1 [Compound 8b, 1-benzyl-1,2,3,4-tetrahydroquinolin-7-yl 4-methylphenylcarbamate] | 354 ± 21.5 µM | 5.41% | 25.1% | 
6 | C#CCN1CCCc2ccc(OC(=O)Nc3ccccc3Br)cc21 [Compound 10c, 1-(prop-2-ynyl)-1,2,3,4-tetrahydroquinolin-7-yl 2-bromophenylcarbamate] | 2.82 ± 0.04 µM | 71.7% | 87.3% | AChE inhibitory activity compared to rivastigmine [1]: almost equal
7 | Nc1c2c(nc3ccccc13)CCCC2 [Tacrine] |  |  |  | tolerability (Swiss albino male mice; 5 mg/kg dose): well tolerated at 5 mg/kg dose
8 | CN1CCCc2ccc(OC(=O)Nc3ccccc3F)cc21 [Compound 8l, 1-methyl-1,2,3,4-tetrahydroquinolin-7-yl 2-fluorophenylcarbamate] | 55.9 ± 2.97 µM | 32.8% | 58.8% | 
9 | CCN(C)C(=O)Oc1cccc([C@H](C)N(C)C)c1 [Rivastigmine] |  |  |  | overall locomotor activity (Swiss albino male mice; 1 mg/kg): locomotor activity was normal as control group.; peripheral cholinergic symptoms / tolerability (Swiss albino male mice; 1 mg/kg): 1 mg/kg: No peripheral cholinergic symptoms. Overall; duration of symptom phase (Swiss albino male mice; 2 mg/kg): 25 to 30 min; onset of symptoms after dosing (Swiss albino male mice; 2 mg/kg): 2 mg/kg: 5-10 min after dosing animals become; recovery to normal after dosing (Swiss albino male mice; 2 mg/kg): animals become normal one hr after; time gap between cholinergic side effect and death (Swiss albino male mice; 4 mg/kg): administration. There was no detectable time gap; mortality (Swiss albino male mice; 4 mg/kg oral): 100%; time to mortality after drug administration (Swiss albino male mice; 4 mg/kg oral): ≤ 15 min; peripheral side effects (Swiss albino male mice; oral dose of 3 mg/kg): some peripheral side effects
10 | COc1cc2c(cc1OC)C(=O)C(CC1CCN(Cc3ccccc3)CC1)C2 (centres unmarked) [Donepezil] |  |  |  | tolerability (Swiss albino male mice; 5 mg/kg dose): well tolerated; cholinergic symptoms (Swiss albino male mice): Moderate cholinergic; cholinergic symptoms (Swiss albino male mice; listed as donepezil): moderate cholinergic symptoms; side effects (Swiss albino male mice): severe side effects were found initially and all; side effects (Swiss albino male mice; listed as donepezil): severe side effects were found initially
11 | O=C(Nc1ccc(Cl)cc1)Oc1ccc2c(c1)NCCC2 [Compound 9d, 1,2,3,4-tetrahydroquinolin-7-yl 4-chlorophenylcarbamate] | 126 ± 4.17 µM | 1.86% | 38.9% | 
12 | C#CCN1CCCc2ccc(OC(=O)N(C)C)cc21 [Compound 10g, 1-(prop-2-ynyl)-1,2,3,4-tetrahydroquinolin-7-yl dimethylcarbamate] | 0.68 ± 0.02 µM | 94.2% | 96.5% | AChE inhibitory activity compared to rivastigmine [1]: slightly better
13 | O=C(Nc1ccc(F)cc1)Oc1ccc2c(c1)N(Cc1ccccc1)CCC2 [Compound 8d, 1-benzyl-1,2,3,4-tetrahydroquinolin-7-yl 4-fluorophenylcarbamate] | > 100 µM | 5.23% | 15.5% | 
14 | O=C(Nc1ccc(Cl)cc1)Oc1ccc2c(c1)N(Cc1ccccc1)CCC2 [Compound 8f, 1-benzyl-1,2,3,4-tetrahydroquinolin-7-yl 4-chlorophenylcarbamate] | > 100 µM | 2.1% | 12.5% | 
15 | C#CCN1CCCc2ccc(OC(=O)Nc3ccc(Cl)cc3)cc21 [Compound 10f, 1-(prop-2-ynyl)-1,2,3,4-tetrahydroquinolin-7-yl 4-chlorophenylcarbamate] | 756 ± 208 µM | 25.4% | 30.9% | 
16 | O=C(Nc1ccc(F)cc1)Oc1ccc2c(c1)NCCC2 [Compound 9c, 1,2,3,4-tetrahydroquinolin-7-yl 4-fluorophenylcarbamate] | 327 ± 15.9 µM | 1.15% | 21.6% | 
17 | C#CCN1CCCc2ccc(OC(=O)Nc3ccccc3OC)cc21 [Compound 10e, 1-(prop-2-ynyl)-1,2,3,4-tetrahydroquinolin-7-yl 2-methoxyphenylcarbamate] | 0.92 ± 0.12 µM | 95.4% | 96.3% | AChE inhibitory activity compared to rivastigmine [1]: slightly better; tolerability (Swiss albino male mice; 125 mg/kg oral dose): Well tolerated; cholinergic symptoms / side effects (Swiss albino male mice; 125 mg/kg oral dose): No cholinergic symp-
18 | C#CCN1CCCc2ccc(OC(=O)NCCCCCCC)cc21 [Compound 10b, 1-(prop-2-ynyl)-1,2,3,4-tetrahydroquinolin-7-yl heptylcarbamate] | 7.59 ± 0.62 µM | 55.5% | 77.2% | AChE inhibitory activity, fold lower compared to the drug Rivastigmine ([1]; fold lower than Rivastigmine): 7 fold; tolerability (Swiss albino male mice; 125 mg/kg oral dose): Well tolerated; cholinergic symptoms / side effects (Swiss albino male mice; 125 mg/kg oral dose): No cholinergic symp-
19 | C#CCN1CCCc2ccc(OC(=O)Nc3c(C)cccc3C(C)C)cc21 [Compound 10d, 1-(prop-2-ynyl)-1,2,3,4-tetrahydroquinolin-7-yl 2-isopropyl-6-methylphenylcarbamate] | > 100 µM | 17.9% | 22.5% | 
20 | COc1ccc(NC(=O)Oc2ccc3c(c2)N(Cc2ccccc2)CCC3)cc1 [Compound 8j, 1-benzyl-1,2,3,4-tetrahydroquinolin-7-yl 4-methoxyphenylcarbamate] | > 100 µM | 1.41% | 3.59% | 
21 | COc1ccccc1NC(=O)Oc1ccc2c(c1)N(Cc1ccccc1)CCC2 [Compound 8i, 1-benzyl-1,2,3,4-tetrahydroquinolin-7-yl 2-methoxyphenylcarbamate] | 298 ± 12.7 µM | 2.5% | 24.1% | 
22 | C#CCN1CCCc2ccc(OC(=O)Nc3ccccc3C)cc21 [Compound 10a, 1-(prop-2-ynyl)-1,2,3,4-tetrahydroquinolin-7-yl 2-methylphenylcarbamate] | 13.3 ± 3.33 µM | 52.5% | 60.8% | 
23 | O=C(Nc1ccccc1F)Oc1ccc2c(c1)N(Cc1ccccc1)CCC2 [Compound 8c, 1-benzyl-1,2,3,4-tetrahydroquinolin-7-yl 2-fluorophenylcarbamate] | > 100 µM | 9.87% | 19.5% | 
